The record followed here is patent publication US20160320368A1, “METHOD AND APPARATUS FOR PREDICTING EFFECTIVE DOSE OR SENSITIVITY OF 5-HYDROXY-1H-IMIDAZOLE-4-CARBOXAMIDE, METHOD FOR DETERMINING AMOUNT OF XANTHOSINE MONOPHOSPHATE, AND TREATMENT AGENT AND METHOD FOR TREATING MYELODYSPLASTIC SYNDROME” (FUJIFILM Corporation, priority 2014, published 2016).

For series [1], the system named is XMP in blood cells of healthy human. Briefly: XMP in blood cells of healthy human (hemolysis, Example 4). The series is classed as cell-based. The note with it: 37° C., 8 hours, non-treated = 100%. As for the experimental part:
A ¾ hydrate of Compound A was used as a test compound.
450 μL of the blood collected from two healthy individuals by heparinized blood collection (Analyte A and Analyte B) was added to each of 1.5 mL tubes, and 50 μL of a PBS solution of the test compound (0 μg/mL, 10 μg/mL, 30 μg/mL, 100 μg/mL, 300 μg/mL, or 1000 μg/mL in terms of Compound A) for each concentration was added to each tube. The reaction mixture was stirred in an incubator at 37° C. for 8 hours. Then, BD Pharm Lyse (555899, manufactured by Becton, Dickinson and Company, Inc.) was added to the blood (2 mL of BD Pharm Lyse was added relative to 0.2 mL of blood). After stirring with a vortex mixer, the reaction solution was protected from light and allowed to stand at room temperature for 15 min. After centrifugation at 20° C. and 1000×g for 5 min, the supernatant was removed and suspended in 10 mL of a PBS solution. After centrifugation at 4° C. and 1000×g for 5 min, the supernatant was removed, and 1000 μL of methanol was added to each tube, followed by stirring. Thereafter, 500 μL of ultrapure water was added thereto, followed by further stirring. 600 μL of the reaction solution was divided into each of two tubes, and 400 μL of chloroform was added to each tube. The reaction solution was stirred and then centrifuged at 4° C. and 10000×g for 15 min. 400 μL of the aqueous phase was recovered and added to an ultrafiltration tube, followed by centrifugation at 12° C. and 9200×g for 2 hours. The filtrates were combined and then dried under reduced pressure at 40° C. for 2 hours by using a centrifugal evaporator. After drying, the resulting product was stored in a freezer at −80° C.
The samples stored in (1) and (2) were returned to room temperature and 40 μL of ultrapure water was added to each sample. The mixture was stirred and centrifuged at 4° C. and 21500×g for 5 min. 35 μL of the supernatant was transferred to a vial. After storage at 4° C., XMP in samples was determined in the LC-MS/MS determination instrument, LC conditions and MS/MS conditions described in Example 3 (3).
Amounts of XMP (%) were calculated assuming that the XMP value of a non-Compound A treated group (peak area value) is defined as 100%.

Series [2] in a line: PK test of Compound A, single oral administration, plasma concentration. In kind it is in vivo, female mice (BALB/cAJcl). The following applies: from 10 mg/kg up to 80 mg/kg. As for the experimental part: Non-fasting female mice (BALB/cAJcl) were given a single oral administration of the test compound (10 mg/kg, 40 mg/kg, 80 mg/kg and 160 mg/kg in terms of Compound A).
V1/F, K01, K10, K12 and K21, pharmacokinetic parameters of the two-compartment model, were calculated from the plasma concentration course of Compound A when Compound A was given as a single oral administration. These parameters were used to predict the plasma concentration course of Compound A upon repeated administration in a variety of dosage regimen. […] The parameter of 160 mg/kg was used to carry out the prediction for 120 mg/kg and 240 mg/kg. […] PK parameters (Cmax, Time above IC50 and AUC0-48) were plotted on the X axis, and the inhibition rate of tumor volume was plotted on the Y axis.

Turning to `NC(=O)c1nc[nH]c1O` [Compound A, 5-Hydroxy-1H-imidazole-4-carboxamide], the “Amount of XMP (%) Analyte A” value in series [1] (Compound A 1 μg/mL) is reported as 60%; in series [1] (Compound A 3 μg/mL) it was 45%; in series [1] (Compound A 10 μg/mL) it was 37%; in series [1] (Compound A 30 μg/mL), 27%; in series [1] (Compound A 100 μg/mL) it was 16%. Further, the “Amount of XMP (%) Analyte B” value is reported as 51% in series [1] (Compound A 1 μg/mL); 37% in series [1] (Compound A 3 μg/mL); 25% in series [1] (Compound A 10 μg/mL); 18% in series [1] (Compound A 30 μg/mL); 10% in series [1] (Compound A 100 μg/mL). Further, the “linearity of plasma pharmacokinetics” value in series [2] is “linearity was recognized”.
